According to PubChem BioAssay (NCI):
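GI50 marks 50% less growth. At the TGI there is no net growth.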

Tests used:
Assay in all cases: NCI-60 cell line screen, 384-well format
[1] = tested on: COLO 205 colon
[2] = tested on: UO-31 renal
[3] = tested on: EKVX NSCLC
[4] = tested on: LOX IMVI melanoma
[5] = tested on: KM12 colon
[6] = tested on: OVCAR-8 ovarian
[7] = tested on: CCRF-CEM leukemia
[8] = tested on: SF-539 CNS
[9] = tested on: UACC-62 melanoma
[10] = tested on: OVCAR-3 ovarian
[11] = tested on: BT-549 breast
[12] = tested on: MDA-MB-231 breast
[13] = tested on: UACC-257 melanoma
[14] = tested on: ACHN renal
[15] = tested on: HCC-2998 colon
[16] = tested on: CAKI-1 renal
[17] = tested on: PC-3 prostate
[18] = tested on: SNB-75 CNS
[19] = tested on: HL-60(TB) leukemia
[20] = tested on: RXF 393 renal
[21] = tested on: NCI-H460 NSCLC
[22] = tested on: SR leukemia
[23] = tested on: SK-MEL-5 melanoma
[24] = tested on: NCI/ADR-RES ovarian
[25] = tested on: DU-145 prostate
[26] = tested on: MOLT-4 leukemia
[27] = tested on: M14 melanoma
[28] = tested on: SK-OV-3 ovarian
[29] = tested on: MDA-MB-435 melanoma
[30] = tested on: OVCAR-5 ovarian
[31] = tested on: HT29 colon
[32] = tested on: A549 NSCLC
[33] = tested on: RPMI-8226 leukemia
[34] = tested on: T-47D breast
[35] = tested on: SNB-19 CNS
[36] = tested on: SF-268 CNS
[37] = tested on: K-562 leukemia
[38] = tested on: NCI-H522 lung
[39] = tested on: SN12C renal
[40] = tested on: NCI-H23 lung
[41] = tested on: A498 renal
[42] = tested on: HS 578T breast
[43] = tested on: IGROV1 ovarian
[44] = tested on: HCT-15 colon
[45] = tested on: SK-MEL-28 melanoma
[46] = tested on: TK-10 renal
[47] = tested on: MDA-MB-468 breast
[48] = tested on: SF-295 CNS
[49] = tested on: MALME-3M melanoma
[50] = tested on: 786-0 renal
[51] = tested on: HOP-62 NSCLC
[52] = tested on: SW-620 colon
[53] = tested on: NCI-H322M lung
[54] = tested on: OVCAR-4 ovarian
[55] = tested on: MCF7 breast
[56] = tested on: NCI-H226 lung
[57] = tested on: HOP-92 NSCLC

## CCc1cc2ncc(CN3CCN(c4ccc(C(=O)NC)nc4)CC3)cc2[nH]c1=O
[1]
  GI50: 68.5 µM
  TGI: > 100 µM
[2]
  GI50: > 100 µM
  TGI: > 100 µM
[3]
  GI50: 78.6 µM
  TGI: > 100 µM
[4]
  GI50: 23.9 µM
  TGI: > 100 µM
[5]
  GI50: > 100 µM
  TGI: > 100 µM
[6]
  GI50: 42.1 µM
  TGI: > 100 µM
[7]
  GI50: 29.5 µM
  TGI: > 100 µM
[8]
  GI50: > 100 µM
  TGI: > 100 µM
[9]
  GI50: > 100 µM
  TGI: > 100 µM
[10]
  GI50: 43.5 µM
  TGI: > 100 µM
[11]
  GI50: 29.7 µM
  TGI: > 100 µM
[12]
  GI50: 30.5 µM
  TGI: > 100 µM
[13]
  GI50: > 100 µM
  TGI: > 100 µM
[14]
  GI50: 70.5 µM
  TGI: > 100 µM
[15]
  GI50: 20.2 µM
  TGI: > 100 µM
[16]
  GI50: 34.5 µM
  TGI: > 100 µM
[17]
  GI50: > 100 µM
  TGI: > 100 µM
[18]
  GI50: > 100 µM
  TGI: > 100 µM
[19]
  GI50: 36 µM
  TGI: > 100 µM
[20]
  GI50: > 100 µM
  TGI: > 100 µM
[21]
  GI50: 2.5 µM
  TGI: > 100 µM
[22]
  GI50: 0.271 µM
  TGI: 20.5 µM
[23]
  GI50: > 100 µM
  TGI: > 100 µM
[24]
  GI50: > 100 µM
  TGI: > 100 µM
[25]
  GI50: > 100 µM
  TGI: > 100 µM
[26]
  GI50: 2.3 µM
  TGI: 26.1 µM
[27]
  GI50: > 100 µM
  TGI: > 100 µM
[28]
  GI50: > 100 µM
  TGI: > 100 µM
[29]
  GI50: > 100 µM
  TGI: > 100 µM
[30]
  GI50: > 100 µM
  TGI: > 100 µM
[31]
  GI50: 80.1 µM
  TGI: > 100 µM
[32]
  GI50: 52.6 µM
  TGI: > 100 µM
[33]
  GI50: 3.3 µM
  TGI: 52.4 µM
[34]
  GI50: 22 µM
  TGI: > 100 µM
[35]
  GI50: > 100 µM
  TGI: > 100 µM
[36]
  GI50: 93.1 µM
  TGI: > 100 µM
[37]
  GI50: 74.6 µM
  TGI: > 100 µM
[38]
  GI50: 48.4 µM
  TGI: > 100 µM
[39]
  GI50: 84 µM
  TGI: > 100 µM
[40]
  GI50: 87.2 µM
  TGI: > 100 µM
[41]
  GI50: > 100 µM
  TGI: > 100 µM
[42]
  GI50: 18.9 µM
  TGI: > 100 µM
[43]
  GI50: 60.1 µM
  TGI: > 100 µM
[44]
  GI50: 50 µM
  TGI: > 100 µM
[45]
  GI50: > 100 µM
  TGI: > 100 µM
[46]
  GI50: > 100 µM
  TGI: > 100 µM
[47]
  GI50: 3.1 µM
  TGI: 20.9 µM
[48]
  GI50: 71 µM
  TGI: > 100 µM
[49]
  GI50: 71.2 µM
  TGI: > 100 µM
[50]
  GI50: 72.2 µM
  TGI: > 100 µM
[51]
  GI50: 26.1 µM
  TGI: > 100 µM
[52]
  GI50: > 100 µM
  TGI: > 100 µM
[53]
  GI50: > 100 µM
  TGI: > 100 µM
[54]
  GI50: 53.9 µM
  TGI: > 100 µM
[55]
  GI50: 23.6 µM
  TGI: > 100 µM
[56]
  GI50: 53.1 µM
  TGI: > 100 µM
[57]
  GI50: 25.9 µM
  TGI: > 100 µM
